Tests used:
Type in all cases: biochemical
B-Raf V600E = B-Raf V600E (Homo sapiens, UniProt P15056, V600E); assay: Kinase activity assay, B-Raf V600E; conditions: under the test conditions employed; read-out: activity toward kinase B-Raf V600E, IC50
Excerpt: (§1) Assays for the activity of kinases, including, but not limited to, B-Raf, B-Raf V600E, B-Raf […] and c-Raf-1 are known in the art, for example as described in U.S. patent application Ser. No. 11/473,347 (see Iso, PCT publication WO2007002433), the disclosure of which is hereby incorporated by reference in its entirety.

Kit = Kit (Homo sapiens, UniProt P10721); assay: Kinase activity assay, Kit; conditions: under the test conditions employed; read-out: activity toward kinase Kit, IC50
Excerpt: as §1

Src = Src (Homo sapiens, UniProt P12931); assay: Kinase activity assay, Src; conditions: under the test conditions employed; read-out: activity toward kinase Src, IC50
Excerpt: as §1

Kdr = Kdr (Homo sapiens, UniProt P35968); assay: Kinase activity assay, Kdr; conditions: under the test conditions employed; read-out: activity toward kinase Kdr, IC50
Excerpt: as §1

B-Raf = B-Raf (Homo sapiens, UniProt P15056); assay: Kinase activity assay, B-Raf; conditions: under the test conditions employed; read-out: activity toward kinase B-Raf, IC50
Excerpt: as §1

Fms = Fms (Homo sapiens, UniProt P07333); assay: Kinase activity assay, Fms; conditions: under the test conditions employed; read-out: activity toward kinase Fms, IC50
Excerpt: as §1

c-Raf-1 = c-Raf-1 (Homo sapiens, UniProt P04049); assay: Kinase activity assay, c-Raf-1; conditions: under the test conditions employed; read-out: activity toward kinase c-Raf-1, IC50
Excerpt: as §1

Sequence of Kit (P10721 26-976): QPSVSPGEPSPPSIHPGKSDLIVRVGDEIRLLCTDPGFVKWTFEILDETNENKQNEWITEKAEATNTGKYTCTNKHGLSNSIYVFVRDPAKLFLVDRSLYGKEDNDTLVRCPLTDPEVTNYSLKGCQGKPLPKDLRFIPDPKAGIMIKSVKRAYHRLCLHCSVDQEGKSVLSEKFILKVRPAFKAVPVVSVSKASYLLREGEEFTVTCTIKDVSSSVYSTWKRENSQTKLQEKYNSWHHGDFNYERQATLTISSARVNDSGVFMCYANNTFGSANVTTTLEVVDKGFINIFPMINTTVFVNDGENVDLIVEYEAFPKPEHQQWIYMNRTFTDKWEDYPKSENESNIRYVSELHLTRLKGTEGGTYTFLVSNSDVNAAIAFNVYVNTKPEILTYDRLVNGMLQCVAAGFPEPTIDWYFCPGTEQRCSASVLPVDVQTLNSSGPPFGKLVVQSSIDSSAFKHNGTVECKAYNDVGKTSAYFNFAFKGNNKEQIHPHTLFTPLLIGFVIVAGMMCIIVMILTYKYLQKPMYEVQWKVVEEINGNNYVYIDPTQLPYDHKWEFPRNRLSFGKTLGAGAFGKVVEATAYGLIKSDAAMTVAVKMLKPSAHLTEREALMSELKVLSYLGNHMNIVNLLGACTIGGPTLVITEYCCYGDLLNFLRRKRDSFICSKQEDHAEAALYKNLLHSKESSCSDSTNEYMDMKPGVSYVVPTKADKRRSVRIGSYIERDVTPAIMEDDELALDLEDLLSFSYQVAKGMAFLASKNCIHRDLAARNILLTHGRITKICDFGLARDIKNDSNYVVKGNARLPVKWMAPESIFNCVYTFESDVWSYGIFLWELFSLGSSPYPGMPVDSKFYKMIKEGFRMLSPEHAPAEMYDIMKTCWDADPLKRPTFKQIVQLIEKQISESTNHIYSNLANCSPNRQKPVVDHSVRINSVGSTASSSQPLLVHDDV
Sequence of B-Raf (P15056 whole entry): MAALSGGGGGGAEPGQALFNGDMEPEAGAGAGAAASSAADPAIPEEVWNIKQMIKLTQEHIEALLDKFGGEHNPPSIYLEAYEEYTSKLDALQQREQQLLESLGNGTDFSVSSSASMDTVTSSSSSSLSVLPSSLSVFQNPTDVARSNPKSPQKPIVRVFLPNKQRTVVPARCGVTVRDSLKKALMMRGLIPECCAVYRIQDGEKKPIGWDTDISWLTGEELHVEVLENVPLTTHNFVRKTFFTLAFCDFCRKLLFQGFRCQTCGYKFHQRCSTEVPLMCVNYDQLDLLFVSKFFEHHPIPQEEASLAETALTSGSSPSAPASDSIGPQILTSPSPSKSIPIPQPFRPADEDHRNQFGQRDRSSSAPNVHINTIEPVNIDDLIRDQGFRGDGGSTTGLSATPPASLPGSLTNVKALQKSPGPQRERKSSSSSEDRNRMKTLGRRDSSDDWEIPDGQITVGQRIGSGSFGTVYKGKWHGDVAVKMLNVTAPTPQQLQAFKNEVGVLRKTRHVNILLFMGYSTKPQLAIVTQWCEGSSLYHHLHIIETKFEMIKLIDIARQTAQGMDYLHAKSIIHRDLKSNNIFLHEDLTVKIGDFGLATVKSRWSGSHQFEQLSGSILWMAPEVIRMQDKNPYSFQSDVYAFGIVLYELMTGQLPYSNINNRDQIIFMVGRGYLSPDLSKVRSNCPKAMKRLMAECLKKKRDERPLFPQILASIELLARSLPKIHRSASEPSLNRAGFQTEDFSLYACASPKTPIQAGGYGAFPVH
Sequence of c-Raf-1 (P04049 whole entry): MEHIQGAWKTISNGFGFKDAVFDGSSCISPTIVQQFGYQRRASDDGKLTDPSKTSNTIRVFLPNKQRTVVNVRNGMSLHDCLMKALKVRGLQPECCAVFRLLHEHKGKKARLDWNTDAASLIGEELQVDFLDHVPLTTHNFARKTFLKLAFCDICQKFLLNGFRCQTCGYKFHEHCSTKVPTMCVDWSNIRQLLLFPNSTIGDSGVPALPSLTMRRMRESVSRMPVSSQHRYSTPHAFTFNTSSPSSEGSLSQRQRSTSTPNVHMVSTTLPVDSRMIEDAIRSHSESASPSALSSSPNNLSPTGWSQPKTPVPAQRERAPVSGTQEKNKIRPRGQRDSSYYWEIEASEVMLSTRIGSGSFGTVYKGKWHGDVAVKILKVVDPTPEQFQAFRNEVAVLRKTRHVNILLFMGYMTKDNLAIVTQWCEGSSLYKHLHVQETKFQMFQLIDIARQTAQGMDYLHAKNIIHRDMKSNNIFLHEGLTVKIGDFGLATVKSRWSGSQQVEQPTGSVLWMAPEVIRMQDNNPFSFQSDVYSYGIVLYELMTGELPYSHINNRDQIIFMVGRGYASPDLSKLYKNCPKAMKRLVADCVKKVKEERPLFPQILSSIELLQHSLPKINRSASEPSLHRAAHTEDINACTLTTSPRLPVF
Sequence of Kdr (P35968 20-1356): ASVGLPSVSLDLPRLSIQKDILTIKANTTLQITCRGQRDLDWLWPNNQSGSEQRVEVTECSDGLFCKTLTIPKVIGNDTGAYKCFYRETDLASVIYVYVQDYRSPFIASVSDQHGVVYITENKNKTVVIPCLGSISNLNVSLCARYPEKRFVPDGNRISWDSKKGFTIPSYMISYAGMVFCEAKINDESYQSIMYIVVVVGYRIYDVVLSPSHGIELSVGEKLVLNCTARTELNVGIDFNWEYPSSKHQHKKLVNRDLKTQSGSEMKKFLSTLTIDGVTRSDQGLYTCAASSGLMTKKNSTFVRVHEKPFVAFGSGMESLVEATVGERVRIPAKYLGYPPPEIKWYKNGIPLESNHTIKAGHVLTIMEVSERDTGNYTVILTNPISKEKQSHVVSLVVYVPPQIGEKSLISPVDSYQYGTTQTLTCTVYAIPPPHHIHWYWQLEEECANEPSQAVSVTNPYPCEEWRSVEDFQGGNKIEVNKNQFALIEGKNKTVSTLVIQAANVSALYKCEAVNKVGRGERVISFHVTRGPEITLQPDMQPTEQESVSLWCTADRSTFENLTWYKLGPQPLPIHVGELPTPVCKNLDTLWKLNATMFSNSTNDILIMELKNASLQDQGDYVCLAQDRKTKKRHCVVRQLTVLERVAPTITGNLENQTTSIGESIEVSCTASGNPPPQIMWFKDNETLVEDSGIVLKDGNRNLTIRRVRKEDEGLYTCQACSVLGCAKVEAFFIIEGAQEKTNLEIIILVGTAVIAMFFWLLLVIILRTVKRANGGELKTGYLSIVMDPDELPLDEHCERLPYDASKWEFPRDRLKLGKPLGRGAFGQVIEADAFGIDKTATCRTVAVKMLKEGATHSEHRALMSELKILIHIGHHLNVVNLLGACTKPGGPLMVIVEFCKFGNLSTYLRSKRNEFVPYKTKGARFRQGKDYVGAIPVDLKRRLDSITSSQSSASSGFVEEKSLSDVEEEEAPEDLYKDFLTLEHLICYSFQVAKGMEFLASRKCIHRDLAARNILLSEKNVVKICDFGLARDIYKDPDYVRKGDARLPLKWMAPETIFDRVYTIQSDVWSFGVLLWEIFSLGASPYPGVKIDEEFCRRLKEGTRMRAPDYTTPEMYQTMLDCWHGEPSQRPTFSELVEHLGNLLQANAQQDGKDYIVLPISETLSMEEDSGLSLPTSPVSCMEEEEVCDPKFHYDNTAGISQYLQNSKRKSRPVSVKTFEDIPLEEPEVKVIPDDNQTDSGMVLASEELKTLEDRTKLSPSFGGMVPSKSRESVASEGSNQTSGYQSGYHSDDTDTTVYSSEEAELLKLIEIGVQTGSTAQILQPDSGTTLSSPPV
Sequence of B-Raf V600E (P15056 whole entry V600E): as the sequence (P15056 whole entry) above, with V600E counted along it
Sequence of Fms (P07333 20-972): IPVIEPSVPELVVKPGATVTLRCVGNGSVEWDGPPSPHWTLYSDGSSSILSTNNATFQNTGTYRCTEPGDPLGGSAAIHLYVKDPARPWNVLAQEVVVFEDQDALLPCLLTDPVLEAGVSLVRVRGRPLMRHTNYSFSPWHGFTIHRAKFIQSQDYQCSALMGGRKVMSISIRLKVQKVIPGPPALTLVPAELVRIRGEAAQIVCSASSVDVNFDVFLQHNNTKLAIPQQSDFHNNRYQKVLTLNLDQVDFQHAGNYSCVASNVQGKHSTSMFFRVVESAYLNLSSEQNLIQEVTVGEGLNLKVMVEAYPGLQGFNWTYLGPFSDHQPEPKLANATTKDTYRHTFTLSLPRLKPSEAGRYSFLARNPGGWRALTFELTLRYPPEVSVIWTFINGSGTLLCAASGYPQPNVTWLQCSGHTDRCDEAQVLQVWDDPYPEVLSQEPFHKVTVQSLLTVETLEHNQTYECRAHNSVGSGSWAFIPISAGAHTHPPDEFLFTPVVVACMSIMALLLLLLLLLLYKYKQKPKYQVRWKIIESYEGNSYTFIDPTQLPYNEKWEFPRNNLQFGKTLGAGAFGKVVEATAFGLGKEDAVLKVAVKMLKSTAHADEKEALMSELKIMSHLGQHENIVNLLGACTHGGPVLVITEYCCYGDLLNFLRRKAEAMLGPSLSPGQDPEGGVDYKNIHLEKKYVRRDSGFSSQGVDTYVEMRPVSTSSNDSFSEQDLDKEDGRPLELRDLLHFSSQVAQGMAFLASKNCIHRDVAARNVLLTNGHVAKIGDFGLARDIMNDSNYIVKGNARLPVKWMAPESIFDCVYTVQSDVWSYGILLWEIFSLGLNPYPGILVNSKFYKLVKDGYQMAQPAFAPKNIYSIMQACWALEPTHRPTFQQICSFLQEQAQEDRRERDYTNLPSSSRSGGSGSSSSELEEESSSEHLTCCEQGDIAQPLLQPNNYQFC

IC50 (B-Raf V600E) [µM] | IC50 (Kit) [µM] | IC50 (Src) [µM] | IC50 (Kdr) [µM] | IC50 (B-Raf) [µM] | IC50 (Fms) [µM] | IC50 (c-Raf-1) [µM] | SMILES
≤ 10 | ≤ 10 | ≤ 10 | ≤ 10 |  |  |  | Cn1ccc(S(=O)(=O)Nc2ccc(F)c(C(=O)c3c[nH]c4ncc(Cl)cc34)c2F)n1 [Compound P-0029, 1-Methyl-1H-pyrazole-3-sulfonic acid [3-(5-chloro-1H-pyrrolo[2,3-b]pyridine-3-carbonyl)-2,4-difluoro-phenyl]-amide]
≤ 10 | ≤ 10 |  | ≤ 10 | ≤ 10 |  |  | COC(=O)/C=C/c1cnc2[nH]cc(C(=O)c3c(F)ccc(NS(=O)(=O)c4ccc(C(F)(F)F)cc4)c3F)c2c1 [Compound P-0032, (E)-3-{3-[2,6-Difluoro-3-(4-trifluoromethyl-benzenesulfonylamino)-benzoyl]-1H-pyrrolo[2,3-b]pyridin-5-yl}-acrylic acid methyl ester]
≤ 10 | ≤ 10 | ≤ 10 | ≤ 10 | ≤ 10 | ≤ 10 |  | Cc1ccc(S(=O)(=O)Nc2ccc(F)c(C(=O)c3c[nH]c4ncc(Cl)cc34)c2F)s1 [Compound P-0028, 5-Methyl-thiophene-2-sulfonic acid [3-(5-chloro-1H-pyrrolo[2,3-b]pyridine-3-carbonyl)-2,4-difluoro-phenyl]-amide]
≤ 10 | ≤ 10 | ≤ 10 |  | ≤ 10 |  | ≤ 10 | Cc1ccc2sc(S(=O)(=O)Nc3ccc(F)c(C(=O)c4c[nH]c5ncc(Cl)cc45)c3F)cc2c1 [Compound P-0017, 5-Methyl-benzo[b]thiophene-2-sulfonic acid [3-(5-chloro-1H-pyrrolo[2,3-b]pyridine-3-carbonyl)-2,4-difluoro-phenyl]-amide]
≤ 10 | ≤ 10 |  |  | ≤ 10 | ≤ 10 |  | CCNC(=O)CCc1cnc2[nH]cc(C(=O)c3c(F)ccc(NS(=O)(=O)c4ccc(C(F)(F)F)cc4)c3F)c2c1 [Compound P-0035, 3-{3-[2,6-Difluoro-3-(4-trifluoromethyl-benzenesulfonylamino)-benzoyl]-1H-pyrrolo[2,3-b]pyridin-5-yl}-N-ethyl-propionamide]
≤ 10 | ≤ 10 | ≤ 10 |  | ≤ 10 | ≤ 10 | ≤ 10 | O=C(c1c(F)ccc(NS(=O)(=O)c2ccc3ncsc3c2)c1F)c1c[nH]c2ncc(Cl)cc12 [Compound P-0009, Benzothiazole-6-sulfonic acid [3-(5-chloro-1H-pyrrolo[2,3-b]pyridine-3-carbonyl)-2,4-difluoro-phenyl]-amide]
≤ 10 | ≤ 10 | ≤ 10 | ≤ 10 | ≤ 10 | ≤ 10 | ≤ 10 | Cc1cc(S(=O)(=O)Nc2ccc(F)c(C(=O)c3c[nH]c4ncc(Cl)cc34)c2F)c(C(F)(F)F)o1 [Compound P-0002, 5-Methyl-2-trifluoromethyl-furan-3-sulfonic acid [3-(5-chloro-1H-pyrrolo[2,3-b]pyridine-3-carbonyl)-2,4-difluoro-phenyl]-amide]
≤ 10 | ≤ 10 | ≤ 10 |  | ≤ 10 | ≤ 10 | ≤ 10 | CCCc1ccc(S(=O)(=O)Nc2ccc(F)c(C(=O)c3c[nH]c4ncc(Cl)cc34)c2F)cc1 [Compound P-0015, N-[3-(5-Chloro-1H-pyrrolo[2,3-b]pyridine-3-carbonyl)-2,4-difluoro-phenyl]-4-propyl-benzenesulfonamide]
 | ≤ 10 | ≤ 10 | ≤ 10 | ≤ 10 | ≤ 10 | ≤ 10 | CC(C)Oc1ccc(S(=O)(=O)Nc2ccc(F)c(C(=O)c3c[nH]c4ncc(Cl)cc34)c2F)cc1 [Compound P-0011, N-[3-(5-Chloro-1H-pyrrolo[2,3-b]pyridine-3-carbonyl)-2,4-difluoro-phenyl]-4-isopropoxy-benzenesulfonamide]
 | ≤ 10 | ≤ 10 | ≤ 10 |  | ≤ 10 |  | Cn1cc(S(=O)(=O)Nc2ccc(F)c(C(=O)c3c[nH]c4ncc(Cl)cc34)c2F)c(C(F)(F)F)n1 [Compound P-0010, 1-Methyl-3-trifluoromethyl-1H-pyrazole-4-sulfonic acid [3-(5-chloro-1H-pyrrolo[2,3-b]pyridine-3-carbonyl)-2,4-difluoro-phenyl]-amide]
 | ≤ 10 |  | ≤ 10 | ≤ 10 | ≤ 10 |  | CCCc1ccc(S(=O)(=O)Nc2ccc(F)c(C(=O)c3c[nH]c4ncc(-c5ncc(C)n5C)cc34)c2F)cc1 [Compound P-0027, N-{3-[5-(1,5-Dimethyl-1H-imidazol-2-yl)-1H-pyrrolo[2,3-b]pyridine-3-carbonyl]-2,4-difluoro-phenyl}-4-propyl-benzenesulfonamide]
≤ 10 | ≤ 10 |  | ≤ 10 | ≤ 10 | ≤ 10 | ≤ 10 | O=C(c1c(F)ccc(NS(=O)(=O)c2csc3ccccc23)c1F)c1c[nH]c2ncc(Cl)cc12 [Compound P-0001, Benzo[b]thiophene-3-sulfonic acid [3-(5-chloro-1H-pyrrolo[2,3-b]pyridine-3-carbonyl)-2,4-difluoro-phenyl]-amide]
≤ 10 |  |  |  | ≤ 10 |  | ≤ 10 | Cc1cnc2[nH]cc(C(=O)c3c(F)ccc(NS(=O)(=O)c4ccc(C(F)(F)F)cc4)c3F)c2c1 [Compound P-0030, N-[2,4-Difluoro-3-(5-methyl-1H-pyrrolo[2,3-b]pyridine-3-carbonyl)-phenyl]-4-trifluoromethyl-benzenesulfonamide]
≤ 10 | ≤ 10 |  | ≤ 10 | ≤ 10 | ≤ 10 | ≤ 10 | CC(C)(C)c1ccc(S(=O)(=O)Nc2ccc(F)c(C(=O)c3c[nH]c4ncc(Cl)cc34)c2F)cc1 [Compound P-0014, 4-tert-Butyl-N-[3-(5-chloro-1H-pyrrolo[2,3-b]pyridine-3-carbonyl)-2,4-difluoro-phenyl]-benzenesulfonamide]
≤ 10 |  |  | ≤ 10 | ≤ 10 |  |  | O=C(O)CCc1cnc2[nH]cc(C(=O)c3c(F)ccc(NS(=O)(=O)c4ccc(C(F)(F)F)cc4)c3F)c2c1 [Compound P-0034, 3-{3-[2,6-difluoro-3-(4-trifluoromethyl-benzenesulfonylamino)-benzoyl]-1H-pyrrolo[2,3-b]pyridin-5-yl}-propionic acid]
 |  | ≤ 10 | ≤ 10 |  |  |  | O=C(O)c1cccc(S(=O)(=O)Nc2ccc(F)c(C(=O)c3c[nH]c4ncc(Cl)cc34)c2F)c1 [Compound P-0004, 3-[3-(5-Chloro-1H-pyrrolo[2,3-b]pyridine-3-carbonyl)-2,4-difluoro-phenylsulfamoyl]-benzoic acid]
 | ≤ 10 | ≤ 10 | ≤ 10 |  |  | ≤ 10 | O=C(c1c(F)ccc(NS(=O)(=O)c2ccc(-n3cccn3)cc2)c1F)c1c[nH]c2ncc(Cl)cc12 [Compound P-0008, N-[3-(5-Chloro-1H-pyrrolo[2,3-b]pyridine-3-carbonyl)-2,4-difluoro-phenyl]-4-pyrazol-1-yl-benzenesulfonamide]
 | ≤ 10 | ≤ 10 | ≤ 10 | ≤ 10 |  | ≤ 10 | COCCOc1cnc2[nH]cc(C(=O)c3c(F)ccc(NS(=O)(=O)c4ccc(C(C)C)cc4)c3F)c2c1 [Compound P-0018, N-{2,4-Difluoro-3-[5-(2-methoxy-ethoxy)-1H-pyrrolo[2,3-b]pyridine-3-carbonyl]-phenyl}-4-isopropyl-benzenesulfonamide]
 |  | ≤ 10 |  | ≤ 10 |  |  | COc1cnc2[nH]cc(C(=O)c3c(F)ccc(NS(=O)(=O)c4ccccn4)c3F)c2c1 [Compound P-0036, Pyridine-2-sulfonic acid [2,4-difluoro-3-(5-methoxy-1H-pyrrolo[2,3-b]pyridine-3-carbonyl)-phenyl]-amide]
≤ 10 |  |  |  | ≤ 10 |  |  | COC(=O)CCc1cnc2[nH]cc(C(=O)c3c(F)ccc(NS(=O)(=O)c4ccc(C(F)(F)F)cc4)c3F)c2c1 [Compound P-0033, 3-{3-[2,6-difluoro-3-(4-trifluoromethyl-benzenesulfonylamino)-benzoyl]-1H-pyrrolo[2,3-b]pyridin-5-yl}-propionic acid methyl ester]

SMILES | IC50 (B-Raf V600E) [µM] | IC50 (Kit) [µM] | IC50 (Src) [µM] | IC50 (Kdr) [µM] | IC50 (B-Raf) [µM] | IC50 (Fms) [µM] | IC50 (c-Raf-1) [µM]
CCCCOc1ccc(S(=O)(=O)Nc2ccc(F)c(C(=O)c3c[nH]c4ncc(Cl)cc34)c2F)cc1 [Compound P-0007, 4-Butoxy-N-[3-(5-chloro-1H-pyrrolo[2,3-b]pyridine-3-carbonyl)-2,4-difluoro-phenyl]-benzenesulfonamide] | ≤ 10 | ≤ 10 |  |  | ≤ 10 |  | ≤ 10

From US7863289B2, “Compounds and methods for kinase modulation, and indications therefor” (Plexxikon, Inc., priority 2006, dated 2011)
